Data published in patent publication US4999424A, “GAR transformylase inhibitor” (The Pennsylvania State University, priority 1988, dated 1991).
Like-named read-outs stand apart in the source and are kept apart here.

Columns and labels:
P388 leukemia = settings: in vivo and in vitro; cited from earlier work
B-16 melanoma = settings: in vivo and in vitro; cited from earlier work
6C3HED lymphosarcoma = settings: in vivo and in vitro; cited from earlier work
HL-60 = settings: in vivo and in vitro; cited from earlier work
solid tumors = settings: variety of solid tumors in mice; cited from earlier work
[1] = test system: intracellular pools of ATP and GTP; settings: tested against solid tumors in mice; cited from earlier work
X-5563 = settings: in vivo and in vitro; cited from earlier work
GAR TFase = settings: indirectly shown, solid tumors in mice; cited from earlier work
L1210 leukemia = settings: in vivo and in vitro; cited from earlier work
E. coli GAR TFase [2] = target: T1, E. coli GAR TFase (Escherichia coli, UniProt P08179); experiment: E. coli GAR TFase inhibition/activity assay (5,8-dideazafolate absorbance at 295 nm); format: biochemical
T1 construct: made in house; host or cells: E. coli TX393 with multicopy plasmid pJS85, or E. coli TX635 with lambda pL plasmid pJS119 or pJS167
T1 sequence (P08179 1-212): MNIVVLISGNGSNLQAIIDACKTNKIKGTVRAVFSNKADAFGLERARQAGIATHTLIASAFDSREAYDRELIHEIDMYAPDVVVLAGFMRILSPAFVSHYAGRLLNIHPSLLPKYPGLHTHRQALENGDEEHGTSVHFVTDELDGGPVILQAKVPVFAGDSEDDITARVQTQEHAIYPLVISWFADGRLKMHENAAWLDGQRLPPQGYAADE
Procedure: (§1) All assays were carried out by following the increase of 5,8-dideazafolate absorbence at 295 nm in buffered medium at 26° C. To initiate the reaction, enzyme (1 nM final concentration) was added to a mixture of saturating substrates and variable amounts of inhibitor. A characteristic family of curves was obtained, showing slow, tight-binding inhibition. See, Morrison, Trends Biochem. Sc., 7, 102 (1982) and Morrison, et al., Adv. Enzymology, Relat. Areas Mol. Biol., 57, 201-301 (1987).
(§2) In analyzing the biological activity of the compounds of the present invention, GAR TFase from E. coli was used. This enzyme behaves like the mammalian and avian enzyme with respect to substrate specificity, yet is a simple and effective system having only one biological activity. That is, unlike the avian trifunctional GAR TFase, the E. coli species has a sole function. This follows from the genetic evidence of Smith and Daum, J. Biol. Chem., 262, 10565-10569 (1987) as w®11 as the work of Schrimsher et al., Biochemistry, 25, 4366-4371 (1986) who have shown that […] from E. coli is a monofunctional protein, whereas, in chicken it belongs to a trifunctional protein containing, the activates: GAR SYNthase, GAR TFase, and AIR SYNthase.
The E. coli GAR TFase binding constants for the compounds of the present invention and other folate analogs are shown in Table I below:
Table II illustrates the specificity of beta-TGDDF for GAR TFase in comparison with other reduced-folate utilizing enzymes. This test, was conducted using the same [I]/[E]ratios as stated previously.

E. coli GAR TFase [3] = target: T1, E. coli GAR TFase; experiment: Fluorescence titration, dissociation constant for E. coli GAR TFase; format: binding
Procedure: The thermodynamic dissociation constant, KD, for the E.β-TGDDF complex was measured by following the enhancement of the inhibitor's 395 nm fluorescence (excitation at 275 nm) upon binding to GAR TFase. A concentrated E. coli GAR TFase solution was added to an 11 nM solution of purified β-TGDDF; for each addition, the fluorescence at three different wavelengths (396, 400, and 405 nm) was measured. Fluorescence titration data was analyzed by the method of Taira and Benkovic, J. Med. Chem., 31, 129-137 (1988).
as §2
(§3) The E. coli GAR TFase binding constants for the compounds of the present invention and other folate analogs are shown in Table I below: […]

[4] = substrate: Nc1nc(O)c2cc(CN(C=O)c3ccc(C(=O)N[C@@H](CCC(=O)O)C(=O)O)cc3)ccc2n1; experiment: E. coli GAR TFase inhibition/activity assay (5,8-dideazafolate absorbance at 295 nm); format: biochemical; settings: other: Table I, 26.0 °C
Procedure: as §1, §2, §3

[5] = substrate: NCC(=O)N[C@@H]1O[C@H](COP(=O)(O)O)[C@@H](O)[C@H]1O; experiment: as above; format: biochemical; settings: other: Table I, 26.0 °C
Procedure: as §1, §2, §3

Nc1nc2c(c(=O)[nH]1)CC(CCc1ccc(C(=O)NC(CCC(=O)O)C(=O)O)cc1)CN2 (stereo not shown) [DDATHF]
Anti-tumor activity (P388 leukemia): anti-tumor,activity
Anti-tumor activity (B-16 melanoma): anti-tumor,activity
Anti-tumor activity (6C3HED lymphosarcoma): anti-tumor,activity
Anti-tumor activity (HL-60): anti-tumor,activity
Activity against solid tumors (solid tumors): impressive activity
Effect on intracellular pools of ATP and GTP [1]: depletion of intracellular pools of ATP and GTP
Anti-tumor activity (X-5563): anti-tumor,activity
Inhibition of GAR TFase (GAR TFase): indirectly shown to inhibit GAR TFase
Anti-tumor activity (L1210 leukemia): anti-tumor,activity

Nc1nc2ccc(CNc3ccc(C(=O)N[C@@H](CCC(=O)O)C(=O)O)cc3)cc2c(=O)[nH]1 [DDF, 5,8-dideazafolate, reference compound]
Ki (E. coli GAR TFase [2]): 28100 nM

Nc1nc2ccc(CN(C(=O)CSCC(=O)NC3O[C@H](CO)[C@@H](O)[C@H]3O)c3ccc(C(=O)N[C@@H](CCC(=O)O)C(=O)O)cc3)cc2c(=O)[nH]1 (stereo partly drawn) [alpha,beta-dephospho-TGDDF]
Ki (E. coli GAR TFase [2]; Table I, E. coli GAR TFase, read-out: KI): 1700 nM

Nc1nc2ccc(CN(C(=O)CSCC(=O)N[C@H]3O[C@H](COP(=O)(O)O)[C@@H](O)[C@H]3O)c3ccc(C(=O)N[C@@H](CCC(=O)O)C(=O)O)cc3)cc2c(=O)[nH]1 [alpha-TGDDF]
binding affinity for GAR TFase (comparison of anomers) (E. coli GAR TFase [3]; alpha- versus beta-anomer): lower than the beta-anomer
Kd (E. coli GAR TFase [3]; alpha-anomer, read-out: KD): 5.8 nM

CN(Cc1cnc2nc(N)nc(N)c2n1)c1ccc(C(=O)N[C@@H](CCC(=O)O)C(=O)O)cc1 [methotrexate]
Activity against solid tumors (solid tumors): minimal activity

B1: E. coli GAR TFase (Escherichia coli K-12) (protein)
chain: MNIVVLISGNGSNLQAIIDACKTNKIKGTVRAVFSNKADAFGLERARQAGIATHTLIASAFDSREAYDRELIHEIDMYAPDVVVLAGFMRILSPAFVSHYAGRLLNIHPSLLPKYPGLHTHRQALENGDEEHGTSVHFVTDELDGGPVILQAKVPVFAGDSEDDITARVQTQEHAIYPLVISWFADGRLKMHENAAWLDGQRLPPQGYAADE
notes: made in house; host or cells: E. coli TX393 with multicopy plasmid pJS85, or E. coli TX635 with lambda pL plasmid pJS119 or pJS167
Km [4]: 36 µM
Km [5]: 20 µM
